In patent US7935507B2, “Method for testing substances on biomatrices” (Humanautocell GmbH, priority 2004, dated 2011):

Tested on: CYP2E1
Details: tissue equivalent strips (hepatocytes + Langerhan's islet cells on matrix) in William's medium E, 37° C.; benzene 0.005, 0.01, 0.02, 0.05 and 0.1 mM, several hours; compared with basic activity before addition
Method: The strips are placed in approximately 1 liter of William's medium E, which is agitated. Adequate gas exchange is ensured, and the temperature of the medium is maintained at 37° C.
After the system has equilibrated, a first strip of tissue equivalent is removed and the CYP2E1 activity thereon is determined via the EFCOD test method. Using the said method, the CYP2E1mediated O-dealkylation of 7-ethoxy-4-trifluoromethylcoumarin to 7-hydroxy-4-trifluoromethylcoumarin is determined.
The benzene is allowed to act for several hours, while maintaining the medium in agitation and ensuring the gas exchange. Then the CYP2E1 activity is determined once again in the way described in the foregoing.

c1ccccc1 [benzene]
CYP2E1 activity (O-dealkylation of 7-ethoxy-4-trifluoromethylcoumarin to 7-hydroxy-4-trifluoromethylcoumarin): distinct increase of the basic activity with increasing benzene concentration
